Assay results from article PMC9692542, “First Report of the Molecular Mechanism of Resistance to Tribenuron-Methyl in Silene conoidea L” (Plants, 2022).

Tested on: T1, ALS (acetolactate synthase)
T1 construct: native enzyme in leaf extract, not purified
Experiment: in vitro ALS activity of leaf extract, colorimetric acetoin ([…] nm)
Type: biochemical, Silene conoidea
Conditions: leaf extract of susceptible population; read-out: I50 (μM) ^c

COC(=O)c1ccccc1S(=O)(=O)NC(=O)N(C)c1nc(C)nc(OC)n1 [tribenuron-methyl, methyl 2-[[[[N-(4-methoxy-6-methyl-1,3,5triazin-2-yl)methyl-amino]carbonyl]amino]sulfonyl]benzoate]
IC50: 11.6 ± 1 µM
